# Literature values, collected in patent publication US11850218B2, “Nutraceutical compositions and methods for dietary alleviation of Polycystic Ovary Syndrome” (Provation Life LLC, priority 2022, dated 2023).
# Key:
# [1] = system: cellular sensitivity to insulin
Molecule,anti-androgenic effect (hyperandrogenism),cellular sensitivity to insulin / insulin resistance [1],other results
[Zn] [Zinc],show anti-androgenic effects,,production of progesterone (hyperandrogenism; supplementation): increase production
COc1cc(/C=C/C(=O)CC(=O)/C=C/c2ccc(O)c(OC)c2)ccc1O [Curcumin],,increases cellular sensitivity to insulin,
COc1ccc2cc3[n+](cc2c1OC)CCc1cc2c(cc1-3)OCO2 [Berberine],,decrease insulin resistance,
O[C@H]1[C@H](O)[C@@H](O)[C@H](O)[C@@H](O)[C@H]1O [myo-inositol],significant anti-androgenic effect,increase cellular sensitivity to insulin,menstruation / menstrual cyclicity (PCOS cases): restoration of normal menstruation
chromium (III) picolinate,produces an anti-androgenic effect,positive effect upon cellular sensitivity to insulin,free testosterone levels (hyperandrogenism; PCOS cases): lowering free testosterone levels
CC[C@H](C)C(=O)O[C@H]1C[C@@H](C)C=C2C=C[C@H](C)[C@H](CC[C@@H]3C[C@@H](O)CC(=O)O3)[C@H]21 [Monacolin K],provides an anti-androgenic effect,,
[Mg+2] [Magnesium],show anti-androgenic effects,,production of lutenizing hormone (hyperandrogenism; supplementation): seems to have a positive effect
